Data set [1] concerns the target T1, human COX-2 (Homo sapiens, UniProt P35354).
T1 sequence (P35354 18-604): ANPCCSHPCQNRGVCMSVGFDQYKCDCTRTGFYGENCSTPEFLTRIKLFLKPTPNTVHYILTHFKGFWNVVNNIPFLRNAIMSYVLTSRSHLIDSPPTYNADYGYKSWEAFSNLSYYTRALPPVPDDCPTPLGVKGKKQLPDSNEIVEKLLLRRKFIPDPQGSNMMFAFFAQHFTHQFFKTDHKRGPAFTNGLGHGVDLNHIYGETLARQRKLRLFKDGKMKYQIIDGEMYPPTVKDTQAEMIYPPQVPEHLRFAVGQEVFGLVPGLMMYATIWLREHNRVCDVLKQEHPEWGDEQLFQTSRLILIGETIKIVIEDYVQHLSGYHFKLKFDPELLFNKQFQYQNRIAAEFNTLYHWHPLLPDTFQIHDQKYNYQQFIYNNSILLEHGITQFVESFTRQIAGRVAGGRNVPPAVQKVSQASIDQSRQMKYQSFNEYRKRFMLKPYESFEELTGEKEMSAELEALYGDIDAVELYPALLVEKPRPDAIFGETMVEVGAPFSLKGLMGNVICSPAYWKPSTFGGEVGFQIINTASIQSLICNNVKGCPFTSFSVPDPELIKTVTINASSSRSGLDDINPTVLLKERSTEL
As to the kind of experiment: COX-2 activity (PGE2 production) in HCA-7 cells after A23187. Particulars: 30 min pre-incubation, 10 μM A23187, another 30 minutes. The class given is cell-based. The arrangement: HCA-7 is a human colon cancer cell line in which COX-2 protein is constitutively expressed; endogenous in cells; host or cells: HCA-7. Here is the method:
(§1) First, the inhibitory effects of the new synthesized compounds on COX-2 were assayed in two cell lines: Raw264.7 cells and HCA-7 cells. Raw264.7 is a mouse macrophage cell line which expresses a high level of COX-2 protein upon lipopolysaccharide (LPS) induction. […] The concentration of prostaglandins (both PGD2 and PGE2) accumulated in the cell culture medium can be employed as an indicator of COX-2 activity. HCA-7 is a human colon cancer cell line in which COX-2 protein is constitutively expressed. Briefly, the cells were pre-incubated with different concentrations of the new compounds for 30 min, and then 10 μM A23187 (a calcium ionophore) was added to release membrane-bound arachidonic acid (the natural substrate of COX-2) to the cytosolic domain. The system was incubated for another 30 minutes and PGE2 concentrations in the culture medium were determined. In both cell lines, higher PGD2/PGE2 concentrations in the media meant more COX-2 activity.

A further data set addresses T2, mouse COX-2 (Mus musculus, UniProt Q05769).
T2 construct: Raw264.7 is a mouse macrophage cell line which expresses a high level of COX-2 protein upon lipopolysaccharide (LPS) induction; endogenous in cells; host or cells: Raw264.7 (LPS-induced)
T2 sequence (Q05769 18-604): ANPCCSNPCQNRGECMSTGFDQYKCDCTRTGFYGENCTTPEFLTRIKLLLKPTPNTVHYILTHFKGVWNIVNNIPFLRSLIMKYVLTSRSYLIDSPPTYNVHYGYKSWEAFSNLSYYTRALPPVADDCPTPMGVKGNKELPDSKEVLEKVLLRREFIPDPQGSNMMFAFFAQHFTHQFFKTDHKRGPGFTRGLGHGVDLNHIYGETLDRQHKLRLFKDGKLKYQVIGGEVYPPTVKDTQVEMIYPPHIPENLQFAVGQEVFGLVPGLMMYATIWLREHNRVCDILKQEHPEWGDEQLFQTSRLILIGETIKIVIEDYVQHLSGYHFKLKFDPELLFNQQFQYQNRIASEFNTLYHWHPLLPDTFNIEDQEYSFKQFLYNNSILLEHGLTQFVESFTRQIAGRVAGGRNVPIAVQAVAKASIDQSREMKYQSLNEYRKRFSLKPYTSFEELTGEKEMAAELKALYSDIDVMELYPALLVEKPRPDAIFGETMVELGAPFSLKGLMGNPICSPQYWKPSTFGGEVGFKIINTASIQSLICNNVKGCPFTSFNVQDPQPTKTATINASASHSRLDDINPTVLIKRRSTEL
The experiment in a line: COX-2 activity (PGD2/PGE2 production) in LPS-induced Raw264.7 cells. The class given is cell-based. Particulars: 0.1 μg/mL LPS, 14 hours co-incubation. The procedure:
as §1

The subject of another data set is human liver microsomes. As to the kind of experiment: Glucuronidation by human liver microsomes. The class given is in vitro ADME. The procedure: (§2) FIG. 5D is a bar graph illustrating in vitro metabolism of phenolics. Glucuronidation rates of 6a1-6a4 by human liver and intestinal microsomes. Additional metabolic rates of various locally bioavailable COX-2 inhibitors are in Table 4. […]. The incubation systems were: for glucuronidation, 0.88 mM magnesium chloride (MgCl2), 4.4 mM saccharolactone, 0.022 mg/mL alamethicin, 3.5 mM uridine 5′-diphospho-glucuronic acid (UDPGA), 10 μM substrates and different concentrations of microsomes in 50 mM potassium phosphate buffer (pH 7.4); for sulfation, 10 mM dithiothreitol (DTT), 5 mM MgCl2, 100 μM 3′-phosphoadenosine-5′-phosphosulfate (PAPS),10 μM substrate and different concentrations of S9 fractions in 50 mM potassium phosphate buffer (pH 7.4).
(§3) In vitro tools were employed to help predict the in vivo metabolism rates of the COX-2 inhibitors that are phenolics. The microsomes and S9 fractions prepared from colon or liver were used to determine the in vivo glucuronidation and sulfation rates of the phenolic compounds, respectively. By employing microsomes and S9 fractions prepared from both rats and humans, it could be determined if the results obtained in the rat model could be reasonably extrapolated to humans. In these experiments, raloxifene and genistein, two phenolic compounds which undergo extensive first-pass metabolism, were selected as controls.

For a further data set, the target named is recombinant human COX-1 (Homo sapiens, UniProt P23219). The experiment in a line: In vitro enzyme assay, recombinant human COX-1. The class given is biochemical. Particulars: read-out: IC50 against recombinant human COX-1.
The subject of data set [2] is human intestine microsomes. As to the kind of experiment: Glucuronidation by human intestine microsomes. The class given is in vitro ADME. The procedure: as §2, §3
The test system of another data set is rat colon microsomes. The experiment in a line: Glucuronidation by rat colon microsomes. The class given is in vitro ADME. The procedure: (§4) FIG. 5B is a bar graph illustrating in vitro glucuronidation of phenolics in liver and colon microsomes of rats. Glucuronidation rates of 6a1-6a4 by rat liver and colon microsomes were measured. Additional metabolic rates of various locally bioavailable COX-2 inhibitors are in Table 3. […]. The incubation systems were: for glucuronidation, 0.88 mM magnesium chloride (MgCl2), 4.4 mM saccharolactone, 0.022 mg/mL alamethicin, 3.5 mM uridine 5′-diphospho-glucuronic acid (UDPGA), 10 μM substrates and different concentrations of microsomes in 50 mM potassium phosphate buffer (pH 7.4); for sulfation, 10 mM dithiothreitol (DTT), 5 mM MgCl2, 100 μM 3′-phosphoadenosine-5′-phosphosulfate (PAPS), 10 μM substrate and different concentrations of S9 fractions in 50 mM potassium phosphate buffer (pH 7.4).
as §3

A further data set has as its system rat liver microsomes. As to the kind of experiment: Glucuronidation by rat liver microsomes. The class given is in vitro ADME. The procedure:
as §4, with “FIG. 5A” for “FIG. 5B”, “vitro metabolism” for “vitro glucuronidation”, “phenolics via glucuronidation pathway.” for “phenolics in liver and colon microsomes of rats.”, “of all the new locally bioavailable COX-2 inhibitors” for “of 6a1-6a4”, “liver microsomes.” for “liver and colon microsomes were measured.”, “3′-phosphoadenosine-5′-phosphosulfate (PAPS),10” for “3′-phosphoadenosine-5′-phosphosulfate (PAPS), 10”
as §3

The target of data set [3] is T1, human COX-2. The experiment in a line: In vitro enzyme assay, recombinant human COX-2 (PGE2 production). The following applies: read-out: IC50 against recombinant human COX-2. Format: biochemical. The text has this: FIG. 3A is a bar graph illustration of PGE2 production by recombinant human COX-2 enzyme in the presence of the new compounds. Less PGE2 production means inhibition of COX-2 enzyme.
FIG. 3B is a bar graph illustration of PGE2 production by recombinant human COX-2 enzyme in the presence of the metabolites of the new compounds. Less PGE2 production means inhibition of COX-2 enzyme.

Data set [4] deals with human Colon S9. The experiment in a line: Sulfation by human colon S9. Format: in vitro ADME. The following applies: substrate 10 μM. Here is the method:
as §2, §3

The subject of data set [5] is human Colon S9. As to the kind of experiment: Glucuronidation by human colon S9. The class given is in vitro ADME. The following applies: substrate 10 μM. Here is the method:
as §2
In vitro tools were employed to help predict the in vivo metabolism rates of the COX-2 inhibitors that are phenolics. […] By employing microsomes and S9 fractions prepared from both rats and humans, it could be determined if the results obtained in the rat model could be reasonably extrapolated to humans. In these experiments, raloxifene and genistein, two phenolic compounds which undergo extensive first-pass metabolism, were selected as controls.

Ten compounds from patent publication US11202773B2, “Locally bioavailable drugs” (UNIVERSITY OF HOUSTON SYSTEM, priority 2015, dated 2021) can be followed below.

Molecules are shown by their SMILES.

Sequence of recombinant human COX-1 (P23219 24-599): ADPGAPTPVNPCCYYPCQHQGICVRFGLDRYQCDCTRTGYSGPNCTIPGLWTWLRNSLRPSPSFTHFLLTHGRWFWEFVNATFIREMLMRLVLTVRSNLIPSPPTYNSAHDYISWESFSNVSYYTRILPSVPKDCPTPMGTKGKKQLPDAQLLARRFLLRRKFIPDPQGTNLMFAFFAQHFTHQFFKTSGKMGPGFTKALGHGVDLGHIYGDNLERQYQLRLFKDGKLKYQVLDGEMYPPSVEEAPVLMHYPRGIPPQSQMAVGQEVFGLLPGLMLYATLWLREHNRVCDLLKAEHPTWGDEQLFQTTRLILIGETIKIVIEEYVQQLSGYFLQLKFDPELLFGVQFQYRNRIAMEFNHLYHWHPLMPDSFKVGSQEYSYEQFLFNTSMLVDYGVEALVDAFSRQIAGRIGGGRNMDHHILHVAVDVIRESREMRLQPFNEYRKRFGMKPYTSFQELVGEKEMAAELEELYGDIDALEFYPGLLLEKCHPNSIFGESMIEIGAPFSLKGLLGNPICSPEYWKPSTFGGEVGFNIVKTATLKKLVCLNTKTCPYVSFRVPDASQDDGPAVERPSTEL

On to `CCOC(=O)c1cc(-c2ccc(C)cc2)n(-c2ccc(S(N)(=O)=O)cc2)n1` [Compound 3a], for which the IC50 on human COX-2 [1] is 0.149 ± 0.026 µM; on mouse COX-2 it was 0.071 ± 0.021 µM.

On to `Cc1ccc(-c2cc(COc3ccc4c(=O)c(O)c(-c5ccccc5)oc4c3)nn2-c2ccc(S(N)(=O)=O)cc2)cc1` [Compound 6a4], for which the “Glucuronidation rates by liver microsomes (Mean)” value in the data set with human liver microsomes amounted to 291 pmol/mg/min; in the data set with rat liver microsomes it was 4763 pmol/mg/min. Moreover, the 50% inhibitory concentration (IC50) amounted to 16 µM at recombinant human COX-1, 0.162 ± 0.065 µM on human COX-2 [1], 0.303 ± 0.055 µM at mouse COX-2 and 2.59 µM on human COX-2 [3]. The “Glucuronidation rates by intestine microsomes (Mean)” value in data set [2] is 2134 pmol/mg/min. Also, in the data set with rat colon microsomes, the “Glucuronidation rates by colon microsomes (Mean)” value turned out to be 571 pmol/mg/min. For the same compound, the “Glucuronidation by rat liver microsomes (FIG. 5A)” value in the data set with rat liver microsomes was “rapidly glucuronidated”.

`NS(=O)(=O)c1ccc(-n2nc(COc3ccccc3O)cc2-c2ccccc2)cc1` [Compound 6b1]: the IC50 on recombinant human COX-1 amounted to 197 µM; at human COX-2 [3], 54.5 µM. In addition, in the data set on rat liver microsomes, the “Glucuronidation rates by liver microsomes (Mean)” value was determined as 7453 pmol/mg/min.

Take `NS(=O)(=O)c1ccc(-n2nc(COc3cccc(O)c3)cc2-c2ccccc2)cc1` [Compound 6b2]: the concentration for half-maximal inhibition (IC50) is 145 µM at recombinant human COX-1, 4.31 ± 0.629 µM at mouse COX-2 and 0.207 µM on human COX-2 [3]. Besides, in the data set on rat liver microsomes, the “Glucuronidation rates by liver microsomes (Mean)” value was found to be 4132 pmol/mg/min.

Take `NS(=O)(=O)c1ccc(-n2nc(COc3ccc(O)cc3)cc2-c2ccccc2)cc1` [Compound 6b3]: the IC50 at recombinant human COX-1 came to 0.028 µM; on mouse COX-2 it was 0.033 ± 0.004 µM; at human COX-2 [3] it was 2.25 µM. Further, the “Glucuronidation rates by liver microsomes (Mean)” value in the data set with rat liver microsomes amounted to 656 pmol/mg/min.

For `COc1ccc(-c2cc(COc3ccccc3O)nn2-c2ccc(S(N)(=O)=O)cc2)cc1` [Compound 6c1], the figures for the IC50 at recombinant human COX-1 and on human COX-2 [3] were 19.8 µM and 0.0403 µM, respectively. Further, the “Glucuronidation rates by liver microsomes (Mean)” value in the data set with rat liver microsomes came out at 7026 pmol/mg/min.

With `COc1ccc(-c2cc(COc3cccc(O)c3)nn2-c2ccc(S(N)(=O)=O)cc2)cc1` [Compound 6c2], the IC50 on recombinant human COX-1 was 1.1 µM; on mouse COX-2, 2.38 ± 0.502 µM; on human COX-2 [3], 0.353 µM. Besides, the “Glucuronidation rates by liver microsomes (Mean)” value in the data set on rat liver microsomes came out at 3092 pmol/mg/min.

Consider `COc1ccc(-c2cc(COc3ccc(O)cc3)nn2-c2ccc(S(N)(=O)=O)cc2)cc1` [Compound 6c3], for which the results for the IC50 on recombinant human COX-1, on mouse COX-2 and on human COX-2 [3] were 12.6 µM, 0.019 ± 0.002 µM and 0.623 µM, respectively. In addition, the “Glucuronidation rates by liver microsomes (Mean)” value in the data set on rat liver microsomes is 934 pmol/mg/min.

With `Cc1ccc(-c2cc(COCc3ccccc3O)nn2-c2ccc(S(N)(=O)=O)cc2)cc1` [Compound 7a1], the “Sulfation rates by human Colon S9 (Mean)” value with human Colon S9 [4] amounted to 40 pmol/mg/min. For the same compound, the “Glucuronidation rates by liver microsomes (Mean)” value in the data set on human liver microsomes was 2510 pmol/mg/min; with rat liver microsomes, 1050 pmol/mg/min. The IC50 stood at 4.9 µM at recombinant human COX-1 and 0.00111 µM on human COX-2 [3]. Moreover, in the data set with rat colon microsomes, the “Glucuronidation rates by colon microsomes (Mean)” value was 160 pmol/mg/min. The “Glucuronidation rates by human Colon S9 (Mean)” value in the data set on human Colon S9 [5] worked out at 190 pmol/mg/min.

In the case of `COc1ccccc1COCc1cc(-c2ccc(C)cc2)n(-c2ccc(S(N)(=O)=O)cc2)n1` [Compound 7a3], the figures for the IC50 at recombinant human COX-1 and on human COX-2 [3] were 19.8 µM and 0.0403 µM, respectively.
